Measurements taken from ChEMBL document CHEMBL1201862, “PubChem BioAssay data set” (2004).
Activity calls are given as the source filed them.

Key:
[1] = HEp-2 cell cytotoxicity, dose response, cytotoxicity control for RSV inhibitor project, HTS (AID 2410); type: functional; settings: human respiratory syncytial virus
[2] = system: Streptococcus sp. 'group A'; assay: growth inhibition of control SK(-) GAS strain, dose response, counter-screen for streptokinase expression inhibitor project, luminescence, kanamycin, BacTiterGlo, confirmation (AID 1900); type: functional, organism-based
Streptococcus = assay: Group A Streptococcus viability loss, dose response, counter-screen for streptokinase expression inhibitor project, luminescence, BacTiterGlo (AID 1915); type: functional, organism-based;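 also: potency for reduction of bacterial viability or growth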
CHO = assay: cytotoxicity in TLR9-MyD88 CHO cells, dose response, cytotoxicity control for TLR9-MyD88 binding inhibitor project, cell-based, luminescence (AID 588339); type: functional, hamster; settings: Cricetulus griseus;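 also: CHO cells stably coexpressing TLR9 and MyD88 fusions from primary screen; compound exposure lasted 48 hours before viability readout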
Beta Lactamase = Beta Lactamase (Pseudomonas aeruginosa, UniProt Q932Y6); assay: beta-lactamase reporter inhibitor potency, dose response, artefact control for TLR9-MyD88 binding inhibitor project, BLA reporter cells, FRET fluorescence (AID 588341); type: cell-based;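 also: cell based assay in CHO-K1 cells stably expressing beta-lactamase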
[3] = inhibitors of intracellular T. cruzi replication, confirmation, NIH3T3 host cells, beta-gal luminescence (AID 2044); type: functional, cell-based;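 also: intracellular parasites grown in NIH/3T3 mouse fibroblasts as host cells; luminescent beta-galactosidase reporter signal from transgenic T. cruzi replicating inside host cells; inhibitors lower the luminescence signal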
[4] = cytotoxicity toward NIH3T3 fibroblasts, dose response, counter-screen, cell-based, ATP luminescence, mouse fibroblasts (AID 2010); type: functional;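 also: cells exposed to compound for about 90 hours before reading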
Exodeoxyribonuclease V = target: T1, Exodeoxyribonuclease V (Escherichia coli (strain K12), UniProt P04993+P07648+P08394); assay: E. coli RecBCD inhibitors, dose response, counter-screen for AddAB inhibitor project, absorbance, V66 E. coli, mutant T4 phage (AID 492957); type: functional, cell-based, Escherichia coli str. K-12 substr. MG1655
T1 sequence (P04993 whole entry): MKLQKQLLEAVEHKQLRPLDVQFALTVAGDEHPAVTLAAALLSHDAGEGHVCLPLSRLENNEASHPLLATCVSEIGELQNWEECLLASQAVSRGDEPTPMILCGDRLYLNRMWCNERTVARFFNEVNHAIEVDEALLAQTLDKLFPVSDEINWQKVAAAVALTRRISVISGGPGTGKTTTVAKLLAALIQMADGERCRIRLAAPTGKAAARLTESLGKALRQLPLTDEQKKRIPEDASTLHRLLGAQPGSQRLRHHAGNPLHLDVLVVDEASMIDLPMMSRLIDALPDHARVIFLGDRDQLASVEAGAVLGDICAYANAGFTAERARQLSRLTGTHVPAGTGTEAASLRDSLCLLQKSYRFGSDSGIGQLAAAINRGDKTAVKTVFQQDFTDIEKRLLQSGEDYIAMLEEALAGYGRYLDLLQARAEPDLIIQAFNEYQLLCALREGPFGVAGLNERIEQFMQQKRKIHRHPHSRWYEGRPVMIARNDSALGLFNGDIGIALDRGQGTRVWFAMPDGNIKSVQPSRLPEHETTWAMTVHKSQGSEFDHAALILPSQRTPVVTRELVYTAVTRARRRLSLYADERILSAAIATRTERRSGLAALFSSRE
T1 sequence (P07648 whole entry): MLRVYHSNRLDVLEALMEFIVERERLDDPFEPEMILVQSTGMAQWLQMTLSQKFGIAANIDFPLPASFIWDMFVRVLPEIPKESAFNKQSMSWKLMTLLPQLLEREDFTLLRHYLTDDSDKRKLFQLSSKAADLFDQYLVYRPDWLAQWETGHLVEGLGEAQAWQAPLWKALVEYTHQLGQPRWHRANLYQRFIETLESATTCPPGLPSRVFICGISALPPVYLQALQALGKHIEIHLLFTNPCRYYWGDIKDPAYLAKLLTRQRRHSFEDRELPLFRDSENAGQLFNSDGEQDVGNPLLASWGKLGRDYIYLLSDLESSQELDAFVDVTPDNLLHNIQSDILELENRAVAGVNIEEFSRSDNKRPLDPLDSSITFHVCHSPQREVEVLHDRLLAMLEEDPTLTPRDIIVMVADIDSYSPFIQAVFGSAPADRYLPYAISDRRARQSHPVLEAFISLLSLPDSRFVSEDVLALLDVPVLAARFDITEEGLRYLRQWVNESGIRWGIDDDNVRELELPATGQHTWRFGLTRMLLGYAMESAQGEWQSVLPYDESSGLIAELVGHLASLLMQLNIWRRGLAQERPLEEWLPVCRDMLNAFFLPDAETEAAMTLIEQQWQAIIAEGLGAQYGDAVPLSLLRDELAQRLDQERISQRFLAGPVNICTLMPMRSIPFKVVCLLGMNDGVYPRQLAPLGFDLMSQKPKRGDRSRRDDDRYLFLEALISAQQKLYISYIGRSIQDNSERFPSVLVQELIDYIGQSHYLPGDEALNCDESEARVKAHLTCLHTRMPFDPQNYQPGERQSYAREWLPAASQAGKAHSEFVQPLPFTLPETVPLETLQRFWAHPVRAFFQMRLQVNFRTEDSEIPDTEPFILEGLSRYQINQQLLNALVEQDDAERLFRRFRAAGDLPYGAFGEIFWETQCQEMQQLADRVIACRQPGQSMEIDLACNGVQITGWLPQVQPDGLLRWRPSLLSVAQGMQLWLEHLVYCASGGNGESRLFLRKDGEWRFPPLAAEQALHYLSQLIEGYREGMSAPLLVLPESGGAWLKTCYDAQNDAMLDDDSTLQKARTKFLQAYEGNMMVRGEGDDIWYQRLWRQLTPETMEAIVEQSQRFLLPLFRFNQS
T1 sequence (P08394 whole entry): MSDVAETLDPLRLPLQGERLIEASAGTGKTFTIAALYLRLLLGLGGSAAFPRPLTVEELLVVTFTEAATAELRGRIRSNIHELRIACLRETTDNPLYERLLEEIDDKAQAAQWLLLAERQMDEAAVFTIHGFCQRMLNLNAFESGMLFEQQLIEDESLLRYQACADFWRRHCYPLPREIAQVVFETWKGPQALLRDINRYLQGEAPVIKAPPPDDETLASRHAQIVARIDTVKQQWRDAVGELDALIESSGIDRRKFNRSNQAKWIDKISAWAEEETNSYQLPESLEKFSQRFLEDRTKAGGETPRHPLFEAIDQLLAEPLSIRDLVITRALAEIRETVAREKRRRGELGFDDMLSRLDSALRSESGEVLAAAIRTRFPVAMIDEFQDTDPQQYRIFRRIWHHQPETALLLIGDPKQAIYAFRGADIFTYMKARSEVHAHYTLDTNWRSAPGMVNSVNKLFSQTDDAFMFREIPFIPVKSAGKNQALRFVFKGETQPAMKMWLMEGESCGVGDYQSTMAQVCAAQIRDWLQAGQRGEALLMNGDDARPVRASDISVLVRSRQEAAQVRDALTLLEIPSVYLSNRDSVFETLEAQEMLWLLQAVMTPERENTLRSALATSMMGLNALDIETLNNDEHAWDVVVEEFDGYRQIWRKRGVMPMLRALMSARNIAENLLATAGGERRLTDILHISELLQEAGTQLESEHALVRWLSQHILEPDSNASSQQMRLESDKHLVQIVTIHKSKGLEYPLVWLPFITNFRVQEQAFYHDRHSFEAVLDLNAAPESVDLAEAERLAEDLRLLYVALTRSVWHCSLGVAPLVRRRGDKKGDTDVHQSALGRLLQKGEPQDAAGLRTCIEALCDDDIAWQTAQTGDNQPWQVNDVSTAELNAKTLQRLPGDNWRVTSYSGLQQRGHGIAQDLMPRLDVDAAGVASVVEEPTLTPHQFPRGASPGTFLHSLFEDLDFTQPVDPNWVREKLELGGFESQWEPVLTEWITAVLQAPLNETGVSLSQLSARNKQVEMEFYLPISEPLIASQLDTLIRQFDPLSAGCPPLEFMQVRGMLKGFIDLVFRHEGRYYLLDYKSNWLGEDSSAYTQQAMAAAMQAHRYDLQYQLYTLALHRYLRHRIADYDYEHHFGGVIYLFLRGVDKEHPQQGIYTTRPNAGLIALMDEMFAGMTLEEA

[5] = THP-1 cell cytotoxicity, dose response, cytotoxicity control for non-replicating M. tuberculosis project (AID 489025); type: functional
[6] = Vero E6 cell cytotoxicity, dose response, cytotoxicity control for non-replicating M. tuberculosis project, secondary assay (AID 492998); type: functional, VeroE6; settings: Vero C1008
[7] = Counterscreen for AddAB inhibitors: absorbance-based bacterial cell-based high throughput dose response assay for inhibitors of bacterial viability. [Related pubchem assays (depositor defined):AID435030, AID449728, AID449731, AID488942, AID488955, AID488956]; type: functional
cells = type: functional
HEK293 [8] = assay: NOD1 signaling inhibitors, primary screen, cell-based, luminescence, uHTS (AID 1578); type: functional; settings: Homo sapiens
[9] = target: T2, RNA-binding protein pos-1 (Caenorhabditis elegans, UniProt G5EF15); assay: inhibitors of POS-1/mex-3 RNA binding, dose response, biochemical, fluorescence polarization (AID 1964);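 also: purified POS-1 fused to maltose binding protein made in E. coli; potency of compounds blocking POS-1 binding to fluorescent RNA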
T2 sequence (G5EF15 whole entry): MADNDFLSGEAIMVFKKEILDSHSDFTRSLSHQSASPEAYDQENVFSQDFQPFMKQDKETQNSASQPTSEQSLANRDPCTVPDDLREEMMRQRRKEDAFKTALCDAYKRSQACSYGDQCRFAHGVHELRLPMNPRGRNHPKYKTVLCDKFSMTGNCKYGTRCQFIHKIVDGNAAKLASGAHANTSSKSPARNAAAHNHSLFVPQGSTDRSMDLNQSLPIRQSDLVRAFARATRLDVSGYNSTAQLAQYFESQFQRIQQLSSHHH

HEK293 [10] = assay: cells; type: functional, cell-based; settings: Homo sapiens
HEK293 [11] = assay: cells; type: functional, cell-based; settings: Homo sapiens; remark: listed apart in the source
[12] = target: Nucleotide-binding oligomerization domain-containing protein 2 (Homo sapiens, UniProt Q9HC29); assay: NOD2 signaling inhibitors, cell-based, luminescence, uHTS, HEK293 (AID 1566); type: functional
HEK293 [13] = assay: NOD2 signaling inhibitors in MDP-stimulated cells, cell-based, uHTS, luminescence (AID 2001); type: functional; settings: Homo sapiens
HEK293 [14] = assay: cells; type: functional, cell-based; settings: Homo sapiens; remark: listed apart in the source
Cytochrome P450 3A4 = Cytochrome P450 3A4 (Homo sapiens, UniProt P08684);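 also: CYP3A4 tested as one member of a cytochrome P450 panel screen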
Nonstructural protein 1 = Nonstructural protein 1 (Influenza A virus, UniProt Q194T2); type: functional, Influenza A virus (A/California/07/2009(H1N1))
[15] = Luminescence Cell-Based Dose Retest to Confirm Inhibitors of Cancer Stem Cells. [Related pubchem assays (depositor defined):AID2717, AID2721]; type: functional; settings: Homo sapiens
HEK293 [16] = assay: cells; settings: Homo sapiens
HEK293 [17] = assay: cells; settings: Homo sapiens; remark: listed apart in the source
Cytochrome P450 2C19 = Cytochrome P450 2C19 (Homo sapiens, UniProt P33261); assay: Cytochrome panel assay with activity outcomes. Panel member name: p450-cyp2c19 Compounds with AC50 equal or less than 10 uM are considered active; type: functional; settings: read-out: AC50
Cytochrome P450 2C9 = Cytochrome P450 2C9 (Homo sapiens, UniProt P11712)
[18] = NIH-3T3 fibroblast cytotoxicity, dose response, cytotoxicity control, cell-based, fluorescence, Alamar Blue, secondary assay (AID 2327); type: functional;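 also: NIH-3T3 mouse fibroblasts cultured with fluconazole at 8 µg/mL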
[19] = C. albicans growth with fluconazole, confirmation, fluorescence, retest (AID 2467); type: functional, cell-based

Beta Lactamase, sequence (Q932Y6 whole entry): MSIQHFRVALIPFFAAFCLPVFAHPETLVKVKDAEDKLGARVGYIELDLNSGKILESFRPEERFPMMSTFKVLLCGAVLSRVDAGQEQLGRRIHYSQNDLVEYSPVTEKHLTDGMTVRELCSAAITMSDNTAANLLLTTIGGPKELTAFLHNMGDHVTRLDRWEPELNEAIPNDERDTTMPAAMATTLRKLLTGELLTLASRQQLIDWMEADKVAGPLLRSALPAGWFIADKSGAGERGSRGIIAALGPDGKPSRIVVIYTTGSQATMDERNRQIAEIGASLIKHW
Cytochrome P450 3A4, sequence (P08684 whole entry): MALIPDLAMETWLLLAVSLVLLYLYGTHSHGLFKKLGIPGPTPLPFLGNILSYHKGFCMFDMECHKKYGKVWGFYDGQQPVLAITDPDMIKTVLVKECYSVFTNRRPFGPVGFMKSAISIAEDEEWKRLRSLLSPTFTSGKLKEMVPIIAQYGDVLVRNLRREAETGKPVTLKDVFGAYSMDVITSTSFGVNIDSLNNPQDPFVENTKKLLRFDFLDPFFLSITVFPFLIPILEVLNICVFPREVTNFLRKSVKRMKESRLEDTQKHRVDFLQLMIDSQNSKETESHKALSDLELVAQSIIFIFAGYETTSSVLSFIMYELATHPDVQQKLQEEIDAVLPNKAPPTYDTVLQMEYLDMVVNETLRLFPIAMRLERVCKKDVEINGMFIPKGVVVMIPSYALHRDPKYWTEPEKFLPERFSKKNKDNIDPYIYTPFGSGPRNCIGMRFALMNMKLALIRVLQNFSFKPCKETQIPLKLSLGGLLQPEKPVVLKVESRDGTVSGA
Nonstructural protein 1, sequence (Q194T2 whole entry): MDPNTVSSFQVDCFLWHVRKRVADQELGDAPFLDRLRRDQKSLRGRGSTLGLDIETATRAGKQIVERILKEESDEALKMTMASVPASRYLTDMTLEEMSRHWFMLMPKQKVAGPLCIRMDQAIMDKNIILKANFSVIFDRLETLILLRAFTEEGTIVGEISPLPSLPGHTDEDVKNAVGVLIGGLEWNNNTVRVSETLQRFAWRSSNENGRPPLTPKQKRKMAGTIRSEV
Cytochrome P450 2C9, sequence (P11712 whole entry): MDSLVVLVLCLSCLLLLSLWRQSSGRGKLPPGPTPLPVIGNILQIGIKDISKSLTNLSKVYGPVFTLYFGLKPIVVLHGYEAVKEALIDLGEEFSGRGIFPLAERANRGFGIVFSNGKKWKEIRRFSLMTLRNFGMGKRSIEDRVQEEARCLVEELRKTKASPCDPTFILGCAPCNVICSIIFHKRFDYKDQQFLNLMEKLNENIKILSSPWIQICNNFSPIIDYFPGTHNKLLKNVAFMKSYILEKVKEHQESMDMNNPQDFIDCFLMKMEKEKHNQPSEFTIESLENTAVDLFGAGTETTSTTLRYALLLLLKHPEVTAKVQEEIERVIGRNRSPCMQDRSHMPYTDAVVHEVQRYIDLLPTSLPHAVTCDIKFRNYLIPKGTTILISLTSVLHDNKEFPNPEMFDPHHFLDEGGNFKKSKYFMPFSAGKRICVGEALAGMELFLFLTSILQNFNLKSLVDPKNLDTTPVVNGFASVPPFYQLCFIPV
Cytochrome P450 2C19, sequence (P33261 whole entry): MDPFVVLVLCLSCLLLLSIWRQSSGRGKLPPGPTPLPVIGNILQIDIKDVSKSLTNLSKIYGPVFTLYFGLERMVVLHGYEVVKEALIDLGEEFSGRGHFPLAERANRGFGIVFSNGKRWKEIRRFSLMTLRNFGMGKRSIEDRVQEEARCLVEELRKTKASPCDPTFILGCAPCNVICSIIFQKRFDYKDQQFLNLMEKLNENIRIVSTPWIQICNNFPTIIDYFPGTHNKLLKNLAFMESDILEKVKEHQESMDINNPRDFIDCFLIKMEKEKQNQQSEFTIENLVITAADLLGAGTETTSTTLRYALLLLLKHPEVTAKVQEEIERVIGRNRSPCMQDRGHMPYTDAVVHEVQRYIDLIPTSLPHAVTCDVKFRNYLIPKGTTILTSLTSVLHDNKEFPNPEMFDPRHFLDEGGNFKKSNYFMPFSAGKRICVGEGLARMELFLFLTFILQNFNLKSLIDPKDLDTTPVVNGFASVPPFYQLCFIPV
Nucleotide-binding oligomerization domain-containing protein 2, sequence (Q9HC29 whole entry, the tested form may be a part): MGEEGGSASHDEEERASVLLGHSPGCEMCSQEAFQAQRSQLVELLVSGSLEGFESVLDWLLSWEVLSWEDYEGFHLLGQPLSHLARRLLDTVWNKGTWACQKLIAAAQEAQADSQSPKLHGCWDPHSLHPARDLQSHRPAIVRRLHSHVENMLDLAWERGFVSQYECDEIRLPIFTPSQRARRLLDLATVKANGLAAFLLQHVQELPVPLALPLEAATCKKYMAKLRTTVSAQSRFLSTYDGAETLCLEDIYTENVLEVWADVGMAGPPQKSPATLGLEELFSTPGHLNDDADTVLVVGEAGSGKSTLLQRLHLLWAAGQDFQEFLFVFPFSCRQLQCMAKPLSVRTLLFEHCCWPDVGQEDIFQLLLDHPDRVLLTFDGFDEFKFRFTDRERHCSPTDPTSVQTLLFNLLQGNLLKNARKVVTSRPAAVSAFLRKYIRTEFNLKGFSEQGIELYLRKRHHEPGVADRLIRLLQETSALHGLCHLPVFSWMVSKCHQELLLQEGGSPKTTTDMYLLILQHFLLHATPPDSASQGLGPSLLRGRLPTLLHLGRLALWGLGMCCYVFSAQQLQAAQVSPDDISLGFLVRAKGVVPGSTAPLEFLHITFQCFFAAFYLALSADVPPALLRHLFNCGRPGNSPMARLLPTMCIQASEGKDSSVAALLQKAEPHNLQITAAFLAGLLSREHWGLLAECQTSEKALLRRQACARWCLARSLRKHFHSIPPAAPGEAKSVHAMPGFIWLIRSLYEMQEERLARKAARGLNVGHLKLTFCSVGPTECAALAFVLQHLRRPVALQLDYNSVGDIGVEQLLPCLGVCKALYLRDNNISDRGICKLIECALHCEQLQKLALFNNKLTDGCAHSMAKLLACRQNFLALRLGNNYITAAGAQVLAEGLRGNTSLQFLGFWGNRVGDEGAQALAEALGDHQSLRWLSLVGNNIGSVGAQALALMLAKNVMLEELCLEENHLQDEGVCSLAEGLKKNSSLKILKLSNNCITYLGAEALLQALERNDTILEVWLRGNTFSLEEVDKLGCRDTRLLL

Cn1c2ccccc2c(=O)c2ccc(C#Cc3ccc(N)cc3)cc21
CC50 [1]: > 50 µM (active)
EC50 [2]: 1.92 µM (active)
EC50 (Streptococcus): 2.12 µM (active)
IC50 (CHO): > 49.8 µM (inactive)
IC50 (Beta Lactamase): 5.26 µM (active)

CCCn1c(NC(=O)c2ccc([N+](=O)[O-])o2)nc2ccccc21
EC50 [3]: 128 nM (active)
EC50 [4]: > 30 µM (not active)
IC50 (Exodeoxyribonuclease V): > 118 µM (inactive)
CC50 [5]: 17.1 µM (active)
CC50 [6]: 13.3 µM (active)
IC50 [7]: > 118 µM (inactive)
IC50 (cells): 1.51 µM (active)

CCOc1cc(/C=C2\C(=N)N3N=C(S(C)(=O)=O)SC3=NC2=O)ccc1OCCOc1cccc(OC)c1
EC50 (HEK293 [8]): > 20 µM (inactive)
EC50 [9]: > 300 µM (not active)
IC50 (HEK293 [10]): > 20 µM (inactive)
IC50 (HEK293 [11]): > 20 µM (inactive)
EC50 [12]: 14.5 µM (active)
IC50 (HEK293 [13]): > 20 µM (inactive)
IC50 (HEK293 [14]): > 20 µM (inactive)

O=C(c1cccc(F)c1)N1CCC2(CC1)CN(c1ncccn1)C2
AC50 (Cytochrome P450 3A4): inconclusive

CN(C)c1ccc(N=Nc2ccccc2C(=O)OCC(=O)NC2CCCC2)cc1
IC50 (Nonstructural protein 1): 20.4 µM (active)

Cc1ccsc1/C=C/c1ccc2cccc(O)c2n1
AC50 [15]: 6.83 µM (active)
EC50 (HEK293 [16]): > 59.7 µM (inactive)
EC50 (HEK293 [17]): > 59.7 µM (inactive)

O=C(Cc1ccccc1)Nc1nc(=O)c2ccccc2s1
AC50 (Cytochrome P450 2C19): 2.82 µM (inconclusive)
AC50 (Cytochrome P450 2C9): 3.55 µM (inconclusive)
AC50 (Cytochrome P450 3A4): inconclusive

COc1ccccc1-c1ccc2c(c1)C(C)(Cc1cccc(C#N)c1)C(=O)N2 (configuration not stated)
EC50 (HEK293 [16]): > 59.6 µM (inactive)
EC50 (HEK293 [17]): > 59.6 µM (inactive)

COc1ccc(CN2CCC2(C)C(=O)Nc2cccc(NS(C)(=O)=O)c2)c2ccccc12 (configuration not stated)
EC50 (HEK293 [16]): > 59.7 µM (inactive)
EC50 (HEK293 [17]): > 59.7 µM (inactive)

Cc1cccc(/C=N/NC(=O)c2cccc([N+](=O)[O-])c2)n1
EC50 (HEK293 [16]): > 59.6 µM (inactive)
EC50 (HEK293 [17]): > 59.6 µM (inactive)

C/C(=N\Nc1ccc([N+](=O)[O-])cc1)c1ccc2c(c1)OCO2
EC50 [18]: > 150 µM (inactive)
EC50 [19]: > 38 µM (not active)
IC50 (CHO): > 49.7 µM (inactive)
IC50 (Beta Lactamase): 12.5 µM (inactive)
